The target in test [1] is EGFR L858R/T790M mutant Ba/F3 cells (Homo sapiens, UniProt P00533, T790M/L858R, cells depend on it). In words: Ba/F3 cell proliferation (Cell Titer Glo). Format: cell-based, murine. Particulars: 72 hours. An excerpt:
All cell lines were maintained in RPMI 1640 (Cellgro; Mediatech Inc., Herndon, CA) supplemented with 10% FBS, 100 units/mL penicillin, 100 units/mL streptomycin. The EGFR I941R mutation was introduced via site directed mutagenesis using the Quick Change Site-Directed Mutagenesis kit (Stratagene; La Jolla, CA) according to the manufacturer's instructions. All constructs were confirmed by DNA sequencing. The constructs were shuttled into the retroviral vector JP1540 using the Cre-recombination system (Agilent Technologies, Santa Clara, CA). Ba/F3 cells were then infected with retrovirus per standard protocols, as described previously (Zhou, et al, Nature 2009). Stable clones were obtained by selection in puromycin (2 μg/ml).
Growth and inhibition of growth was assessed by the Cell Titer Glo assay (Promega, Madison, WI) and was performed according to the manufacturer's instructions. The Cell Titer Glo assay is a luminescence-based method used to determine the number of viable cells based on quantitation of the ATP present, which is directly proportional to the amount of metabolically active cells present. […] All experimental points were set up in triplicates in 384-well plates and all experiments were repeated at least three times. […] The curves were fitted using a non-linear regression model with a sigmoidal dose response.
Background: Cellular ATP, detected with luciferase, serves as a proxy for viable cell number.

The next test concerns the target EGFR L858R (Homo sapiens, UniProt P00533, L858R). Nature of the test: HTRF-based EGFR biochemical assay (L858R). Particulars: 100 μM ATP, enzyme 0.1 nM. Here is the method: (§1) EGFR biochemical activity measurements were carried out using the homogeneous time-resolved fluorescence (HTRF) assay (Cisbio). Inhibitors and DMSO normalizations were first dispensed to empty black low-volume 384-well plates (Corning) with D300 digital liquid dispenser (HP). All reactions were carried out at room temperature and solutions were added to plates with a Multidrop Combi Reagent Dispenser (ThermoFisher). The reaction mixture (10 μL final volume) contained 1 μM tyrosine kinase peptide-biotin substrate and mutant EGFR in a reaction buffer (50 mM HEPES pH 7.0, 5 mM MgCl2, 1 mM MnCl2, 0.01% BSA, 2 mM TCEP, 0.1 mM NaVO4). […] Enzyme reaction solution (2× concentrations, 5 μL) was added to 384-well plates containing compounds and incubated for 30 mins. Enzyme reactions were initiated with the addition of 5 μL of ATP to a final concentration of 100 μM and reacted for 20 mins. Reactions were quenched with the addition of 10 μL of phospho-tyrosine antibody-Europium(III) cryptate (1-to-180 volume ratio) and Streptavidin-XL665 (46.7 nM) in EDTA-containing detection buffer, then incubated at room temperature for 1 hour, and read with a PHERAstar plate reader (excitation=337 nm, emission=620 nm and 665 nm).
On the technique in general: In TR-FRET formats the signal depends on donor and acceptor labels being close together.

A further test concerns the target EGFR L858R/T790M (Homo sapiens, UniProt P00533, L858R/T790M). In words: HTRF-based EGFR biochemical assay (L858R/T790M). The conditions noted are these: 100 μM ATP, enzyme 0.02 nM. As to the method: as §1, with “mins.” for “mins. Reactions were quenched with the addition of 10 μL of phospho-tyrosine antibody-Europium(III) cryptate (1-to-180 volume ratio) and Streptavidin-XL665 (46.7 nM) in EDTA-containing detection buffer, then incubated at room temperature for 1 hour, and read with a PHERAstar plate reader (excitation=337 nm, emission=620 nm and 665 nm).”

Where [2] appears, read: in combination with 1 μg/ml cetuximab, read-out: Cell IC50 BaF3 L858R/T790M compound + cetuximab.
[3] abbreviates: single agent, read-out: Cell IC50 EGFR BaF3 L858R/T790M.

The structures appear in SMILES notation. Like-named read-outs stand apart in the source and are kept apart here.

The record followed here is patent US12622909B2, “Allosteric EGFR inhibitors and methods of use thereof” (Dana-Farber Cancer Institute, Inc., priority 2019, dated 2026).

EGFR L858R/T790M mutant Ba/F3 cells, sequence (P00533 whole entry T790M/L858R): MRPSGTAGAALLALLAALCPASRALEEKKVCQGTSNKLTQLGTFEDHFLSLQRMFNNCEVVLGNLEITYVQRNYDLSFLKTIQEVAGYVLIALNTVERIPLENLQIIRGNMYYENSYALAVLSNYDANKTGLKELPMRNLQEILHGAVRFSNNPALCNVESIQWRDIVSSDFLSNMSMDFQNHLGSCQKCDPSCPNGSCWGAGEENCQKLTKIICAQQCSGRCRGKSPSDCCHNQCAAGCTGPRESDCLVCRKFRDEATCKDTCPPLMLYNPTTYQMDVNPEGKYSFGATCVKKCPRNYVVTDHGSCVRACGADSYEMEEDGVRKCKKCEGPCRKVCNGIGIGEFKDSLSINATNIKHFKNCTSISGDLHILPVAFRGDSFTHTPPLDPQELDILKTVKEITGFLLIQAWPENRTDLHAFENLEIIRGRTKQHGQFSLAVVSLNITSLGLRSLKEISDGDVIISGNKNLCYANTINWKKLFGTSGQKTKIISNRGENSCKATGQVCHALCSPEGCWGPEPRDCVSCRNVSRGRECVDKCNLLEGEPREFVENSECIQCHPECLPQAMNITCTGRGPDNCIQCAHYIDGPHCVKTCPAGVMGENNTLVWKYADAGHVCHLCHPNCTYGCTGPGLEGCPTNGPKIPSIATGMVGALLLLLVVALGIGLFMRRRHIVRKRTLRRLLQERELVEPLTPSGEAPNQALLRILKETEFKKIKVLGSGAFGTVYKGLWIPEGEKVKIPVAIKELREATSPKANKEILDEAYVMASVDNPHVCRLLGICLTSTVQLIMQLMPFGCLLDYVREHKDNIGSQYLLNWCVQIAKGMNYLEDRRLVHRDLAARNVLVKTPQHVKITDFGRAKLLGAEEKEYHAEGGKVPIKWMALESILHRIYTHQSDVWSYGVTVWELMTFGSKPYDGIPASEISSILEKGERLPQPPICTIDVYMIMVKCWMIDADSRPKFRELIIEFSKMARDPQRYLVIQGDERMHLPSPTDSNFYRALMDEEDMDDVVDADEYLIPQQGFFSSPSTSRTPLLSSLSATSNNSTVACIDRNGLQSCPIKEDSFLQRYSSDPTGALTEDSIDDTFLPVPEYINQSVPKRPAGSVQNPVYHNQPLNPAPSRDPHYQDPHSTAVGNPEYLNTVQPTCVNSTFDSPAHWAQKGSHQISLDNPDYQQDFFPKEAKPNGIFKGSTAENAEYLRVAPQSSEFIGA
EGFR L858R/T790M, sequence (P00533 25-1210 T790M/L858R): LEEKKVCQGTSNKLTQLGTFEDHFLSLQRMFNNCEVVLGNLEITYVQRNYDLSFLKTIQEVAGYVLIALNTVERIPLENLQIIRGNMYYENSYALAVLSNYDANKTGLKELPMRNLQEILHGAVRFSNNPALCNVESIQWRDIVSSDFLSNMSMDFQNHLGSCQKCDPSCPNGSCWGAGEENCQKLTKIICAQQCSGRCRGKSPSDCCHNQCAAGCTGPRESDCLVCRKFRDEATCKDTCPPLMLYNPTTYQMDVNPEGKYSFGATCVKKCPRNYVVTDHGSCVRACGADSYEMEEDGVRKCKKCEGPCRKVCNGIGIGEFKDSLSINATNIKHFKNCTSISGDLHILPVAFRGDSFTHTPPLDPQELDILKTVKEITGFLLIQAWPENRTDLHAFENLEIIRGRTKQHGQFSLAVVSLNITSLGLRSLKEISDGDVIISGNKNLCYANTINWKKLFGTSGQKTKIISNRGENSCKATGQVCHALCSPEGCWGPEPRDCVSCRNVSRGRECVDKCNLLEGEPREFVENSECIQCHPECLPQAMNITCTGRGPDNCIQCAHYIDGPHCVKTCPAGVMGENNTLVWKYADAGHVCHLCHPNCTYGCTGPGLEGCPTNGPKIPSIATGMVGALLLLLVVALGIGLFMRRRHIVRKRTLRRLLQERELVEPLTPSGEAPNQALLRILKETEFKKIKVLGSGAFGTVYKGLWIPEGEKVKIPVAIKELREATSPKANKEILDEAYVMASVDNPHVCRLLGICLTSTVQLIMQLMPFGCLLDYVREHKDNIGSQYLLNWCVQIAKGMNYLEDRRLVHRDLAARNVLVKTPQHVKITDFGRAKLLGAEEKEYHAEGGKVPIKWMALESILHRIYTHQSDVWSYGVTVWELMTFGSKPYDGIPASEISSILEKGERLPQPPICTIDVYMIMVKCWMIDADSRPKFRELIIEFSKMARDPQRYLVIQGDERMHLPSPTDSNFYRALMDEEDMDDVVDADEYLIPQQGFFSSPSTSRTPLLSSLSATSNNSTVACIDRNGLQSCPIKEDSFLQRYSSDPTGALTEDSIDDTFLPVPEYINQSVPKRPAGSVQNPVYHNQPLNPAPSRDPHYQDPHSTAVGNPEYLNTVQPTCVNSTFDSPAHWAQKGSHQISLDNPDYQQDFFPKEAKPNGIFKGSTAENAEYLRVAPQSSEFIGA
EGFR L858R, sequence (P00533 25-1210 L858R): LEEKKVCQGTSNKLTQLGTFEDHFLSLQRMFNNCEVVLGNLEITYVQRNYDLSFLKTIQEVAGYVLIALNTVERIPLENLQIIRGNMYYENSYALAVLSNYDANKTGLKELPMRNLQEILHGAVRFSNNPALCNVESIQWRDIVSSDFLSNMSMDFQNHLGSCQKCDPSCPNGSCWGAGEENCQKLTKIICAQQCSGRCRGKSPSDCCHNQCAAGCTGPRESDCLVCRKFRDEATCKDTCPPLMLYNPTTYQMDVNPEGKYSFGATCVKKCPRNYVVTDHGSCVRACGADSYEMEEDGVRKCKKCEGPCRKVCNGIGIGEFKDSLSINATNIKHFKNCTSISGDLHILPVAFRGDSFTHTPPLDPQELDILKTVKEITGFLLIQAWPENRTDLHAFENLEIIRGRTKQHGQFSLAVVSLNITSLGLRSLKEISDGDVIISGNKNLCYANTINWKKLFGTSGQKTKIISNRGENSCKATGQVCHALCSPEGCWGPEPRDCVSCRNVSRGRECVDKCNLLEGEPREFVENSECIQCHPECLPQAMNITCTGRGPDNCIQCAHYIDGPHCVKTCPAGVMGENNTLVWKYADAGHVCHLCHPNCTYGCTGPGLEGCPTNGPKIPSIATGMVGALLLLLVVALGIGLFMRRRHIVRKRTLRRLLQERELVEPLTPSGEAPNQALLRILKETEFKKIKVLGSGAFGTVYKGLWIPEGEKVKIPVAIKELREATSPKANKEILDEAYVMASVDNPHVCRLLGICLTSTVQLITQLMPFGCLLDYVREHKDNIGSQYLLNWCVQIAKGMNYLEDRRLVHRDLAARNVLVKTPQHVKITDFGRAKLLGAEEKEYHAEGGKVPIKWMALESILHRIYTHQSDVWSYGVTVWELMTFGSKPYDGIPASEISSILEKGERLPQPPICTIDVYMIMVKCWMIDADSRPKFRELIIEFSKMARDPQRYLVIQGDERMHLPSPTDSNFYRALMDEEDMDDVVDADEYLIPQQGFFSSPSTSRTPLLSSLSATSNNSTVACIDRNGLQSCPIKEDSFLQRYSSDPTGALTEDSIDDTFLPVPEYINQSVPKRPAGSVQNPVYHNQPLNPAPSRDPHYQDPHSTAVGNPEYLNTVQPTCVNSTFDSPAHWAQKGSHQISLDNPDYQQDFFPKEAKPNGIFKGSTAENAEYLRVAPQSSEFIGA

What is called IC50 is the concentration that gives 50% inhibition. Lower therefore signals higher potency. Consider `O=C(Nc1nccs1)C(c1ccccc1)n1cnc2cc(Br)ccc2c1=O` (centres unmarked) [Compound 001, 2-(7-Bromo-4-oxoquinazolin-3(4H)-yl)-2-phenyl-N-(thiazol-2-yl)acetamide], for which the GI50 in test [1] (setting [2]) was 8.3 µM; in test [1] (setting [3]), more than 10 µM. The IC50 at EGFR L858R was 1.26 µM; against EGFR L858R/T790M, 0.062 µM.
In the same order, the values of `O=C(Nc1nccs1)C(c1ccccc1)n1cnc2ccc(Br)cc2c1=O` (centres unmarked) [Compound 002, 2-(6-Bromo-4-oxoquinazolin-3(4H)-yl)-2-phenyl-N-(thiazol-2-yl)-acetamide] are 0.98 µM, more than 10 µM, 0.275 µM and 0.035 µM.
As for `O=C(Nc1nccs1)C(c1ccccc1)n1ccc2cc(Br)ccc2c1=O` (centres unmarked) [Compound 003, 2-(6-Bromo-1-oxoisoquinolin-2(1H)-yl)-2-phenyl-N-(thiazol-2-yl)-acetamide], the GI50 in test [1] (setting [2]) is 2 µM; in test [1] (setting [3]) it was more than 10 µM. The IC50 against EGFR L858R stood at 0.245 µM; against EGFR L858R/T790M it was 0.016 µM.
The like results for `O=C(Nc1nccs1)C(c1ccccc1)n1ccc2ccc(Br)cc2c1=O` (centres unmarked) [Compound 004, 2-(7-Bromo-1-oxoisoquinolin-2(1H)-yl)-2-phenyl-N-(thiazol-2-yl)-acetamide] were, in that order, 0.79 µM, more than 10 µM, 0.521 µM and 0.029 µM.
In the case of `O=C(Nc1nccs1)C(c1ccccc1)n1cnc2cc(Br)c(F)cc2c1=O` (centres unmarked) [Compound 005, 2-(7-Bromo-6-fluoro-4-oxoquinazolin-3(4H)-yl)-2-phenyl-N-(thiazol-2-yl)acetamide], the GI50 in test [1] (setting [2]) was 4.8 µM; in test [1] (setting [3]), more than 10 µM. Further, the IC50 on EGFR L858R was more than 1 µM; against EGFR L858R/T790M it was 0.091 µM.
The like results for `O=C(Nc1nccs1)C(c1ccccc1)n1cc(F)c2cc(Br)ccc2c1=O` (centres unmarked) [Compound 006, 2-(6-Bromo-4-fluoro-1-oxo-isoquinolin-2(1H)-yl)-2-phenyl-N-(thiazol-2-yl)acetamide] were, in that order, 1.8 µM, more than 10 µM, more than 1 µM and 0.036 µM.
`O=C(Nc1nccs1)C(c1cccc(F)c1)n1ccc2ccc(Br)cc2c1=O` (centres unmarked) [Compound 007, 2-(7-Bromo-1-oxoisoquinolin-2(1H)-yl)-2-(3-fluorophenyl)-N-(thiazol-2-yl)acetamide]: the GI50 in test [1] (setting [2]) was 1.5 µM; in test [1] (setting [3]) it was more than 10 µM. The IC50 is more than 1 µM at EGFR L858R and 0.048 µM on EGFR L858R/T790M.
In the same order, the values of `O=C(Nc1nccs1)C(c1cccc(F)c1)n1ccc2cc(Br)ccc2c1=O` (centres unmarked) [Compound 008, 2-(6-Bromo-1-oxoisoquinolin-2(1H)-yl)-2-(3-fluorophenyl)-N-(thiazol-2-yl)acetamide] are 2.5 µM, more than 10 µM, more than 1 µM and 0.064 µM.
Take `O=C(Nc1nccs1)C(c1ccccc1)n1ncc2cc(Br)ccc2c1=O` (centres unmarked) [Compound 009, 2-(6-Bromo-1-oxophthalazin-2(1H)-yl)-2-phenyl-N-(thiazol-2-yl)-acetamide]: the GI50 in test [1] (setting [2]) and in test [1] (setting [3]) was more than 10 µM throughout. For the same molecule, the IC50 against EGFR L858R was more than 1 µM; against EGFR L858R/T790M, 0.01 µM.
As to `O=C(Nc1nccs1)C(c1cccc(F)c1)n1cnc2cc(Br)ccc2c1=O` (centres unmarked) [Compound 010, 2-(7-Bromo-4-oxoquinazolin-3(4H)-yl)-2-(3-fluorophenyl)-N-(thiazol-2-yl)acetamide], the GI50 in test [1] (setting [2]) and in test [1] (setting [3]) was more than 10 µM throughout. Besides, the IC50 against EGFR L858R came out at 1.84 µM; on EGFR L858R/T790M, 0.054 µM.
Turning to `O=C(Nc1nccs1)C(c1cccc(F)c1)n1cnc2ccc(Br)cc2c1=O` (centres unmarked) [Compound 011, 2-(6-Bromo-4-oxoquinazolin-3(4H)-yl)-2-(3-fluorophenyl)-N-(thiazol-2-yl)acetamide], the results for the GI50 in test [1] (setting [2]) and in test [1] (setting [3]) were 0.35 µM and more than 10 µM, respectively. In addition, the IC50 is 0.195 µM against EGFR L858R and 0.016 µM at EGFR L858R/T790M.
Turning to `CN1CCC(c2ccc(-c3ccc4c(=O)n(C(C(=O)Nc5nccs5)c5ccccc5)cnc4c3)cc2)CC1` (centres unmarked) [Compound 012, 2-(7-(4-(1-Methylpiperidin-4-yl)phenyl)-4-oxoquinazolin-3(4H)-yl)-2-phenyl-N-(thiazol-2-yl)acetamide], the GI50 was determined as 0.2 µM in test [1] (setting [2]) and 2.15 µM in test [1] (setting [3]). Also, the values for the IC50 against EGFR L858R and against EGFR L858R/T790M were 0.011 µM and 0.006 µM, respectively.
As for `CN1CCN(c2ccc(-c3ccc4c(=O)n(C(C(=O)Nc5nccs5)c5ccccc5)cnc4c3)cc2)CC1` (centres unmarked) [Compound 013, 2-(7-(4-(4-Methylpiperazin-1-yl)-phenyl)-4-oxoquinazolin-3(4H)-yl)-2-phenyl-N-(thiazol-2-yl)acetamide], the GI50 in test [1] (setting [2]) is 0.38 µM; in test [1] (setting [3]) it was 2 µM. Further, the figures for the 50% inhibitory concentration (IC50) at EGFR L858R and on EGFR L858R/T790M were 0.014 µM and 0.003 µM, respectively.
As to `CN1CCC(c2ccc(-c3ccc4ncn(C(C(=O)Nc5nccs5)c5ccccc5)c(=O)c4c3)cc2)CC1` (centres unmarked) [Compound 014, 2-(6-(4-(1-Methylpiperidin-4-yl)-phenyl)-4-oxoquinazolin-3(4H)-yl)-2-phenyl-N-(thiazol-2-yl)acetamide], the GI50 in test [1] (setting [2]) was 0.005 µM; in test [1] (setting [3]), 0.51 µM. Besides, the figures for the IC50 against EGFR L858R and at EGFR L858R/T790M were 0.003 µM and 0.0002 µM, respectively.
In the same order, the values of `CN1CCN(c2ccc(-c3ccc4ncn(C(C(=O)Nc5nccs5)c5ccccc5)c(=O)c4c3)cc2)CC1` (centres unmarked) [Compound 015, 2-(6-(4-(4-Methylpiperazin-1-yl)-phenyl)-4-oxoquinazolin-3(4H)-yl)-2-phenyl-N-(thiazol-2-yl)acetamide] are 0.02 µM, 2.32 µM, 0.007 µM and 0.001 µM.
Regarding `CN1CCC(c2ccc(-c3ccc4c(=O)n(C(C(=O)Nc5nccs5)c5ccccc5)ccc4c3)cc2)CC1` (centres unmarked) [Compound 016, 2-(6-(4-(1-Methylpiperidin-4-yl)-phenyl)-1-oxoisoquinolin-2(1H)-yl)-2-phenyl-N-(thiazol-2-yl)acetamide], the GI50 in test [1] (setting [2]) worked out at 0.02 µM; in test [1] (setting [3]), 1.19 µM. Also, the IC50 amounted to 0.003 µM on EGFR L858R and 0.001 µM on EGFR L858R/T790M.
In the same order, the values of `CN1CCN(c2ccc(-c3ccc4c(=O)n(C(C(=O)Nc5nccs5)c5ccccc5)ccc4c3)cc2)CC1` (centres unmarked) [Compound 017, 2-(6-(4-(4-Methylpiperazin-1-yl)-phenyl)-1-oxoisoquinolin-2(1H)-yl)-2-phenyl-N-(thiazol-2-yl)acetamide] are 0.062 µM, 1.27 µM, 0.007 µM and 0.003 µM.
Turning to `CN1CCC(c2ccc(-c3ccc4ccn(C(C(=O)Nc5nccs5)c5ccccc5)c(=O)c4c3)cc2)CC1` (centres unmarked) [Compound 018, 2-(7-(4-(1-Methylpiperidin-4-yl)-phenyl)-1-oxoisoquinolin-2(1H)-yl)-2-phenyl-N-(thiazol-2-yl)acetamide], the GI50 came to 0.072 µM in test [1] (setting [2]) and 1.52 µM in test [1] (setting [3]). Moreover, the IC50 was 0.012 µM against EGFR L858R and 0.002 µM against EGFR L858R/T790M.
In the case of `O=C(Nc1nccs1)C(c1ccccc1)n1cnc2ccc(C#Cc3cccnc3)cc2c1=O` (centres unmarked) [Compound 061, 2-(4-Oxo-6-(pyridin-3-ylethynyl)quinazolin-3(4H)-yl)-2-phenyl-N-(thiazol-2-yl)acetamide], the GI50 in test [1] (setting [2]) was 0.028 µM; in test [1] (setting [3]) it was 4.52 µM.
